Here are results for ten molecules from US20260109707A1, “HETEROBIFUNCTIONAL COMPOUNDS AND METHODS OF TREATING DISEASE” (Halda Therapeutics OpCo. Inc., priority 2022, published 2026).

For assay [1], the system named is T47D cells. The assay can be described thus: Cellular growth inhibition assay for T47D cells (CellTiter-Glo, 72 hours). The assay is classed as cell-based, human. Conditions: Homo sapiens, T47D, 72 h, 72 hours treatment. Put shortly:
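Luminescence from CellTiter-Glo 2.0 after 72 h of compound exposure gives the viability signal. Cells grew in insulin-supplemented (0.2 units/mL) DMEM with 10% FBS and were treated one day after seeding at 0.5% DMSO. GI50 values come from four-parameter nonlinear regression.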
A general note: ATP-based viability assays read luminescence as a measure of living cells.

In assay [2] the test system is T-Rex 293 cell line SC cells lacking increased expression of progesterone receptor isoform B protein. Put plainly: Cellular growth inhibition assay, T-Rex 293 SC cells without doxycycline (CellTiter-Glo, 72 hours). It counts as cell-based. Conditions: T-Rex 293 SC cells not exposed to doxycycline. Here is the method: (§1) The following types of cells were prepared for this experiment: (i) a T-Rex 293 cell line having increased expression of progesterone receptor isoform B protein due to exposure to doxycycline and (ii) a T-Rex 293 cell line lacking increased expression of progesterone receptor isoform B protein. Ability of the test compounds to inhibit proliferation of the foregoing cell types was evaluated according to the procedures set forth below.
(§2) The doxycycline-inducible progesterone receptor isoform B protein expressing cell line was established using the following protocol: T-Rex 293 cells were purchased from Invitrogen (Cat #R71007) and transfected using Lipofectamine 2000 with the wild-type progesterone receptor B protein sequence cloned into the pcDNA4/TO vector. Transfected cells were selected using 400 μg/mL Zeocin (Invitrogen Cat #R25001). Following selection, single clones were raised and maintained in Dulbecco's Modified Eagle Medium (DMEM) supplemented with 10% w/w Tetracycline-free fetal bovine serum (FBS) and 250 μg/mL Zeocin. Clones were analyzed for expression of progesterone receptor isoform B protein in the presence and absence of 10 ng/mL doxycycline (Sigma Cat #D9891), and a single doxycycline-inducible clone (hereinafter “SC”) was selected for use in downstream assays.
(§3) The SC cells were seeded on poly-D-lysine coated, black clear-bottom 384-well plates at 2500/well, in 25 μL Phenol Red Free Dulbecco's Modified Eagle Medium (DMEM) supplemented with 10% w/w charcoal-dextran treated fetal bovine serum (FBS) and 1% w/w pen-strep, with or without 10 ng/mL doxycycline. Pen-Strep is a commercially available mixture of penicillin G and streptomycin, which is used in mammalian cell culture media to prevent bacterial contamination. Phenol Red Free Dulbecco's Modified Eagle Medium (DMEM) supplemented with 10% w/w charcoal-dextran treated fetal bovine serum (FBS) and 1% w/w pen-strep, with or without 10 ng/mL doxycycline is herein referred to as Treatment Medium. Following seeding of cells in the plates, the plates were spun at 300×g for 30 seconds, then equilibrated to room temperature for 30 minutes, and then deposited in a humidified tissue culture incubator maintained at 37° C. with 5% CO2.
(§4) At 24 hours after seeding of the cells, dilutions of test compound were prepared in DMSO and dissolved in Treatment Medium, to achieve a final DMSO concentration of 0.5% w/w, thereby providing the Test Compound Solution. A 25 μL aliquot of the Test Compound Solution was added to cells in the well plates. An equal volume of a solution containing DMSO and Treatment Medium was used as a negative control. Following treatment of cells with Test Compound Solution or said equal volume of a solution containing DMSO and Treatment Medium, the plates were spun at 300×g for 30 seconds, and then left in an incubator for 72 hours.
(§5) At the end of the treatment duration, cell viability was quantified with CellTiter-Glo 2.0 reagent (Promega Cat #G9243). For this purpose, plates were equilibrated to room temperature for 30 minutes, and then 25 μL of CellTiter-Glo 2.0 reagent was added to cells in the plate wells. Plates were then agitated on a shaker for two minutes at 500 rpm and subsequently incubated at room temperature for 10 minutes. Following incubation, the plates were spun at 3000×g for 30 seconds, then sealed with an optical adhesive cover, and luminescence readings were measured with an EnVision Plate Reader (Perkin Elmer).
(§6) Data was normalized using zero luminescence for baseline. A four-parameter non-linear regression curve fit was applied to dose-response data in GraphPad Prism data analysis software to determine the half-maximal growth inhibitory concentration (GI50) for each test compound.

A short description of assay [3]: Cellular growth inhibition assay, T-Rex 293 SC cells with doxycycline (CellTiter-Glo, 72 hours). The assay is classed as cell-based. Conditions: T-Rex 293 SC cells with doxycycline (increased progesterone receptor isoform B). Here is the method:
as §1, §2, §3, §4, §5, §6

The test system of assay [4] is VCaP cells. Put plainly: Cellular growth inhibition assay for VCaP cells (CellTiter-Glo, 72 hours). The assay is classed as cell-based, human. The following applies: Homo sapiens, VCaP, 72 h. Put shortly:
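Luminescent viability signal after 72 h of compound exposure gave GI50 values by four-parameter nonlinear regression. Compounds were added in 0.5% DMSO to cells plated 24 h earlier at 5000/well in DMEM containing 10% FBS.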

As for `Cc1sc2c(c1C)C(c1ccc(Cl)cc1)=N[C@@H](CC(=O)NCCOC1CCN(c3ccc(C(=O)N[C@H]4CC[C@H](Oc5ccc(C#N)c(Cl)c5)CC4)nn3)CC1)c1nnc(C)n1-2` [I-1, N-[4-(3-chloro-4-cyano-phenoxy)cyclohexyl]-6-[4-[2-[[2-[(9S)-7-(4-chlorophenyl)-4,5,13-trimethyl-3-thia-1,8,11,12-tetrazatricyclo[8.3.0.0^2,6]trideca-2(6),4,7,10,12-pentaen-9-yl]acetyl]amino]ethoxy]-1-piperidyl]pyridazine-3-carboxamide], the GI50 in assay [1], in assay [2], in assay [3] and in assay [4] was < 500 nM in each case.

With `Cc1sc2c(c1C)C(c1ccc(Cl)cc1)=N[C@@H](CC(=O)NCCOCCOCCOC1CCN(c3ccc(C(=O)N[C@H]4CC[C@H](Oc5ccc(C#N)c(Cl)c5)CC4)nn3)CC1)c1nnc(C)n1-2` [I-2, N-[4-(3-chloro-4-cyano-phenoxy)cyclohexyl]-6-[4-[2-[2-[2-[[2-[(9S)-7-(4-chlorophenyl)-4,5,13-trimethyl-3-thia-1,8,11,12-tetrazatricyclo[8.3.0.0^2,6]trideca-2(6),4,7,10,12-pentaen-9-yl]acetyl]amino]ethoxy]ethoxy]ethoxy]-1-piperidyl]pyridazine-3-carboxamide], the GI50 in assay [1] was 1500 to 3000 nM; in assay [2], > 3000 nM; in assay [3], < 500 nM; in assay [4], < 500 nM.

`CCNC(=O)C[C@@H]1N=C(c2ccc(OCCOC3CCN(c4ccc(C(=O)N[C@H]5CC[C@H](Oc6ccc(C#N)c(Cl)c6)CC5)nn4)CC3)cc2)c2c(sc(C)c2C)-n2c(C)nnc21` [I-8]: the GI50 in assay [1], in assay [2], in assay [3] and in assay [4] was < 500 nM in each case.

As for `CCNC(=O)C[C@@H]1N=C(c2ccc(OCCOCCOC3CCN(c4ccc(C(=O)N[C@H]5CC[C@H](Oc6ccc(C#N)c(Cl)c6)CC5)nn4)CC3)cc2)c2c(sc(C)c2C)-n2c(C)nnc21` [I-10], the GI50 in assay [1], in assay [2], in assay [3] and in assay [4] was < 500 nM in each case.

Consider `CCNC(=O)C[C@@H]1N=C(c2ccc(CCCOC3CCN(c4ccc(C(=O)N[C@H]5CC[C@H](Oc6ccc(C#N)c(Cl)c6)CC5)nn4)CC3)cc2)c2c(sc(C)c2C)-n2c(C)nnc21` [I-17], for which the GI50 in assay [1] and in assay [4] was < 500 nM each time.

In the case of `CCNC(=O)C[C@@H]1N=C(c2ccc(CC3CCN(c4ccc(C(=O)N[C@H]5CC[C@H](Oc6ccc(C#N)c(Cl)c6)CC5)nn4)CC3)cc2)c2c(sc(C)c2C)-n2c(C)nnc21` [I-20], the GI50 in assay [1] is 500 to 1500 nM; in assay [2] it was 500 to 1500 nM; in assay [3] it was < 500 nM; in assay [4], < 500 nM.

`CCNC(=O)C[C@@H]1N=C(c2ccc(N3CC4(C3)CN(c3ccc(C(=O)N[C@H]5CC[C@H](Oc6ccc(C#N)c(Cl)c6)CC5)nn3)C4)cc2)c2c(sc(C)c2C)-n2c(C)nnc21` [I-24]: the GI50 was < 500 nM in assay [1], 500 to 1500 nM in assay [2], < 500 nM in assay [3] and < 500 nM in assay [4].

With `CCNC(=O)C[C@@H]1N=C(c2ccc(OCC3CN(c4ccc(C(=O)N[C@H]5CC[C@H](Oc6ccc(C#N)c(Cl)c6)CC5)nn4)C3)cc2)c2c(sc(C)c2C)-n2c(C)nnc21` [I-29], the GI50 in assay [1] and in assay [4] was < 500 nM in each case.

With `CCNC(=O)C[C@@H]1N=C(c2ccc(N3CCC(OC4CCN(c5ccc(C(=O)N[C@H]6CC[C@H](Oc7ccc(C#N)c(Cl)c7)CC6)nn5)CC4)CC3)cc2)c2c(sc(C)c2C)-n2c(C)nnc21` [I-44], the GI50 in assay [4] was < 500 nM.

Take `CCNC(=O)C[C@@H]1N=C(c2ccc(OCCCN(C)c3ccc(C(=O)N[C@H]4CC[C@H](Oc5ccc(C#N)c(Cl)c5)CC4)nn3)cc2)c2c(sc(C)c2C)-n2c(C)nnc21` [I-48]: the results for the GI50 in assay [1] and in assay [4] were 500 to 1500 nM and < 500 nM, respectively.

The term GI50 denotes the concentration that inhibits growth by half.
